Measured values published in patent US5010204A, “Acetazolamide-related compounds, process for their preparation, and pharmaceutical composition containing the same” (Instituto Chimico Internazionale Dr. Giuseppe Rende S.r.l., priority 1988, dated 1991).
≈ marks a conversion by molar mass, not a printed value.

What was measured:
[1] = system: ocular pressure in rabbit; experiment: decrease in ocular pressure in rabbit, transient ocular hypertension model (5% glucose infusion), topical instillation; assay type: in vivo; parameters: endoocular pressure, 10' OS / endoocular pressure, 20' OC / endoocular pressure, 40' OS: unit not given beside the values; conditions: for endoocular pressure, 10' OS / endoocular pressure, 20' OS / endoocular pressure, 40' OS: left eye (diluent-treated fellow eye, control); for endoocular pressure, 10' OS / endoocular pressure, 10' OD: 10 minutes; for endoocular pressure, 20' OS / endoocular pressure, 20' OC: 20 minutes; for endoocular pressure, 40' OS / endoocular pressure, 40' OD: 40 minutes; for endoocular pressure, 10' OD / endoocular pressure, 20' OC / endoocular pressure, 40' OD: right eye (drug-treated, 2 drops of 2% solution)
Method: In vivo experiments were carried out on the compounds of the present invention, and, amongst the others, those experiments whose results are reported in the following Table 2, concerning the decrease in the ocular pressure in rabbit.
For determining such results a transient ocular hypertension model was employed, said hypertension being obtained in rabbit through rapid venous infusion of suitable volumes (20 ml/kg) of 5% glucose solution.
Albino rabbits from the same farm in New Zealand were employed, whose weights were between 2,500 e 3,000 g. Each treatment was carried out on a group of six animals.
The drug was prepared in a phosphate buffer water solution at pH 7.5. The solution was made isotonic with sodium chloride and the possibility of microbial contamination was prevented through the addition of benzalkonium chloride. In case of compounds of low solubility, a dispersing suspension of the finely divided compound in methyl cellulose was prepared. The solution (or the suspension) was instilled into the right eye of each animal in the amount of 2 drops of 2% solution, at an interval of 2 minutes from one another. The left eye was treated with an equal volume of diluent.
The measurements of pressure were performed while animals were in superficial local anaesthesia (0.4% benoxinate), by means of a McKay-Marg electronic pressure gage, at the times -30', 0', 10', 20', 40'.
The following table reports the endoocular pressure measured after 10, 20, and 40 minutes both in the right and in the left eye: the higher the difference in the ocular pressure between the treated eye and the untreated eye, the higher the efficiency of the drug considered.

[2] = solubility in buffer pH 7.6; assay type: physicochemical; conditions: aqueous buffer
[3] = biological target: carbonic anhydrase; experiment: in vitro inhibition of carbonic anhydrase (enzymic activity), CO2-electrode potentiometric analysis; assay type: biochemical; conditions: samples at 10^-7, 3×10^-7, 6×10^-7 and 10^-6 molar; read-out: I50 (molar concentration that gives a 50% reduction of enzymic activity)
Text: For determining the in vitro activities, samples were employed at molar concentrations of 10^-7, 3×10^-7, 6×10^-7, and 10^-6, and the results given in Table 1 were obtained by CO2 -electrode potentiometric analysis.

[4] = stability of the product (hydrolysis), observed on preparation; assay type: physicochemical; conditions: residue after reaction with liquid ammonia
[5] = in words; cited from earlier work
[6] = in words; cited from earlier work; remark: listed apart in the source

Row | SMILES | endoocular pressure, 10' OS [1] | endoocular pressure, 20' OS [1] | endoocular pressure, 40' OS [1] | endoocular pressure, 10' OD [1] | endoocular pressure, 20' OC [1] | endoocular pressure, 40' OD [1] | solubility [2] | IC50 [3] | stability [4] | absorption when instilled in the eye [5] | water solubility [6]
1 | NCCCCC(=O)Nc1nnc(S(N)(=O)=O)s1 [RENDE 027, 5-(5-Aminovaleroylamino)-2-sulfonamido-1,3,4-thiadiazole] | 26.17 | 21.5 | 17.33 | 24.0 | 20.83 | 16.83 | 208 µg/mL (≈ 0.745 mM) | 440 nM |  |  | 
2 | CCCCCOC(=O)CCC(=O)Nc1nnc(S(N)(=O)=O)s1 [RENDE 032, 5-Pentylsuccinoylamino-2-sulfonamido-1,3,4-thiadiazole] | 24.5 | 21.33 | 18.83 | 22.67 | 20.0 | 17.83 | 470 µg/mL (≈ 1.34 mM) | 390 nM |  |  | 
3 | COC(=O)CCC(=O)N=c1sc(S(N)(=O)=O)nn1C [RENDE 024, 5-Methylsuccinoylamino-4-methyl-2-sulfonamido-1,3,4-thiadiazole] | 25.83 | 21.5 | 17.83 | 24.67 | 20.33 | 17.33 | 2250 µg/mL (≈ 7.3 mM) | 450 nM |  |  | 
4 | CC(C)COC(=O)CCC(=O)Nc1nnc(S(N)(=O)=O)s1 [RENDE 034, 5-Isobutylsuccinoylamino-2-sulfonamido-1,3,4-thiadiazole] | 25.67 | 21.17 | 17.17 | 21.5 | 19.0 | 16.67 | 1240 µg/mL (≈ 3.69 mM) | 370 nM |  |  | 
5 | CCOC(=O)CCC(=O)Nc1nnc(S(N)(=O)=O)s1 [RENDE 029, 5-Ethylsuccinoylamino-2-sulfonamido-1,3,4-thiadiazole] | 25.67 | 20.67 | 17.67 | 20.33 | 17.33 | 15.67 | 2760 µg/mL (≈ 8.95 mM) |  |  |  | 
6 | COC(=O)CCC(=O)Nc1nnc(S(N)(=O)=O)s1 [RENDE 023, 5-methylsuccinoylamino-2-sulfonamido-1,3,4-thiadiazole] | 25.5 | 20.17 | 16.67 | 25.33 | 19.5 | 16.5 | 740 µg/mL (≈ 2.51 mM) | 550 nM |  |  | 
7 | NS(=O)(=O)c1nnc(NC(=O)CCC(=O)OCC(F)(F)F)s1 [Rende 039, 5-Trifluoroethylsuccinoylamino-2-sulfonamido-1,3,4-thiadiazole] |  |  |  |  |  |  |  |  | very unstable and becomes very easily hydrolysed |  | 
8 | NS(=O)(=O)c1nnc(NC(=O)CCC(=O)O)s1 [RENDE 037, 5-succinoylamino-2-sulfonamido-1,3,4-thiadiazolic acid] | 26.0 | 21.67 | 19.0 | 19.33 | 17.17 | 15.67 | 28700 µg/mL (≈ 102 mM) |  |  |  | 
9 | CC(=O)Nc1nnc(S(N)(=O)=O)s1 [ACETAZOLAMIDE, 5-acetamido-2-sulfonamido-1,3,4-thiadiazole] |  |  |  |  |  |  |  |  |  | poor absorption | practically insoluble
10 | CCCCCOC(=O)CCC(=O)N=c1sc(S(N)(=O)=O)nn1C [RENDE 035, 5-Pentylsuccinoylamino-4-methyl-2-sulfonamido-1,3,4-thiadiazole] | 25.17 | 22.0 | 18.0 | 24 | 20.67 | 17.83 | 535 µg/mL (≈ 1.47 mM) | 307 nM |  |  | 
